Reference: patent EP2758382B1, “HETEROCYCLOCARBONYLAMINOTHIAZOLES, COSMETIC AND DERMATOLOGICAL PREPARATIONS CONTAINING THEM, AND THEIR USE FOR THE TREATMENT AND PROPHYLAXIS OF UNWANTED PIGMENTATION OF THE SKIN” (Beiersdorf AG, priority 2011, dated 2013)

biological target: T1, humane Tyrosinase (Homo sapiens, UniProt P14679); experiment: Enzyme test: conversion of L-DOPA to L-Dopachinon by human tyrosinase, MBTH detection, absorption at 490 nm; type: biochemical; details: Konzentration 10 µg/mL; substrate L-DOPA
T1 sequence (P14679 19-529): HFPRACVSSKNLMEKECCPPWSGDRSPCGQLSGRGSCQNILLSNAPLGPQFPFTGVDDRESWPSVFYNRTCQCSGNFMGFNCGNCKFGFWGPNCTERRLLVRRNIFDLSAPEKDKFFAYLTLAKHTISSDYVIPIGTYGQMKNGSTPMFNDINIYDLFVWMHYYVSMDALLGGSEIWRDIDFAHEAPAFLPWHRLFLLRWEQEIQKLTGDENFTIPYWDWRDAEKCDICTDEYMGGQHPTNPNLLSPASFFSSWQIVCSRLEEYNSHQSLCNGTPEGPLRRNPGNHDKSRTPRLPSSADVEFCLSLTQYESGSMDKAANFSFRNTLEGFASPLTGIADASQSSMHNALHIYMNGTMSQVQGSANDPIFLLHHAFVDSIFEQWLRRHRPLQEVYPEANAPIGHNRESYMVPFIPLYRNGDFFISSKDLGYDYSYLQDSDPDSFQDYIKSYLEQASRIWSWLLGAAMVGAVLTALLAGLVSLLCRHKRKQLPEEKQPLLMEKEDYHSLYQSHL
Text: Die Wirksamkeit der Thiazole wurde mit einem Enzymtest belegt, in der Umsatz von L-DOPA zu L-Dopachinon durch eine humane Tyrosinase gemessen wurde. Bei dieser literaturbekannten Methode (Winder, A.J. and Harris, H., New assays for the tyrosine hydroxylase and dopa oxidase activities of tyrosinase. Eur. J. Blochem. (1991), 198, 317-26) wird das Reaktionsprodukt L-Dopaquinone mit MBTH (3-methyl-2-benzothiazoline hydrazone) zu einer pinkfarbenen Substanz umgesetzt, deren Zunahme über die Zeit durch Absorption bei 490 nm gemessen wird. In Tabelle ein sind Wirksamkeitsdaten für einige der beanspruchten Substanzen beispielhaft dargestellt. Daraus lässt sich schließen, dass die erfindungsgemäßen Substanzen äußerst effektive pigmentierungs-inhibierende Substanzen sind.

Which “Inhibition (% der Kontrolle)” value does the source give for `O=C(Nc1nc(-c2ccc(O)cc2O)cs1)N1CCCCC1` [N-(4-(2,4-dihydroxyphenyl)thiazol-2-yl)piperidin-1-carboxamid] here?
Its value is 97 % der Kontrolle.

How did the “Inhibition (% der Kontrolle)” value turn out when `O=C(Nc1nc(-c2ccc(O)cc2O)cs1)N1CCOCC1` [N-(4-(2,4-dihydroxyphenyl)thiazol-2-yl)morpholin-4-carboxamid] was run?
Its value is 97 % der Kontrolle.

For `O=C(Nc1nc(-c2ccc(O)cc2O)cs1)N1CCNCC1` [N-(4-(2,4-dihydroxyphenyl)thiazol-2-yl)piperazin-1-carboxamid], which “Inhibition (% der Kontrolle)” value is on record?
Its value is 94 % der Kontrolle.

For `Oc1ccc(-c2csc(N3CCOCC3)n2)c(O)c1` [4-(2-Morpholinothiazol-4-yl)benzen-1,3-diol], which “Inhibition (% der Kontrolle)” value is on record?
The value was 91 % der Kontrolle.

How did the “Inhibition (% der Kontrolle)” value turn out when `Oc1ccc(-c2csc(N3CCCCC3)n2)c(O)c1` [4-(2-(Piperidin-1-yl)thiazol-4-yl)benzen-1,3-diol] was run?
The value was 82 % der Kontrolle.

How did the “Inhibition (% der Kontrolle)” value turn out when `CCN1CCN(C(=O)Nc2nc(-c3ccc(O)cc3O)cs2)CC1` [N-(4-(2,4-dihydroxyphenyl)thiazol-2-yl)-4-ethylpiperazin-1-carboxamid] was run?
The value was 94 % der Kontrolle.

How did the “Inhibition (% der Kontrolle)” value turn out when `Oc1ccc(-c2csc(N3CCNCC3)n2)c(O)c1` [4-(2-(Piperazin-1-yl)thiazol-4-yl)benzen-1,3-diol] was run?
Its value is 93 % der Kontrolle.

How did the “Inhibition (% der Kontrolle)” value turn out when `CCN1CCN(c2nc(-c3ccc(O)cc3O)cs2)CC1` [4-(2-(4-Ethylpiperazin-1-yl)thiazol-4-yl)benzen-1,3-diol] was run?
The value was 91 % der Kontrolle.
